Reference: paper PMC10209615, “Pharmacological inhibition of LSD1 suppresses growth of hepatocellular carcinoma by inducing GADD45B” (MedComm, 2023)

Key:
Test in all cases: Kinase activity detection (Eurofins)
Type in all cases: biochemical
FGFR3 = molecular target: T1, FGFR3 (Homo sapiens, UniProt P22607); conditions: ZY0511 1 µM, read-out: Inhibition rate
T1 construct: purchased Eurofins Pharma Discovery Services (KinaseProfiler)
Method: (§1) The activity of ZY0511 against 104 cancer‐related kinases was carried out by Eurofins Pharma Discovery Services (Celle Lévescault, France).

EGFR (T790M, L858R) = molecular target: T2, EGFR (T790M, L858R) (Homo sapiens, UniProt P00533, L858R/T790M); conditions: ZY0511 1 µM
T2 construct: purchased Eurofins Pharma Discovery Services (KinaseProfiler)
Method: as §1

DCAMKL3 = molecular target: T3, DCAMKL3 (Homo sapiens, UniProt Q9C098); conditions: ZY0511 1 µM, read-out: Inhibition rate
T3 construct: purchased Eurofins Pharma Discovery Services
Method: as §1

B-Raf (V599E) = molecular target: T4, B-Raf (V599E) (Homo sapiens, UniProt P15056, V600E); conditions: ZY0511 1 µM, read-out: Inhibition rate
T4 construct: purchased Eurofins Pharma Discovery Services (KinaseProfiler)
Method: as §1

PI3 Kinase (p110δ/p85α) = molecular target: T5, PI3 Kinase (p110δ/p85α) (Homo sapiens, UniProt O00329); conditions: ZY0511 1 µM, read-out: Inhibition rate
T5 construct: purchased Eurofins Pharma Discovery Services (KinaseProfiler)
Method: as §1

PAK1 = molecular target: T6, PAK1 (Homo sapiens, UniProt Q13153); conditions: ZY0511 1 µM, read-out: Activation rate
T6 construct: purchased Eurofins Pharma Discovery Services (KinaseProfiler)
Method: as §1

PAK4 = molecular target: T7, PAK4 (Homo sapiens, UniProt O96013); conditions: ZY0511 1 µM, read-out: Inhibition rate
T7 construct: purchased Eurofins Pharma Discovery Services (KinaseProfiler)
Method: as §1

PI3 Kinase (p110βγ/p85α) = molecular target: T8, PI3 Kinase (p110βγ/p85α) (Homo sapiens, UniProt P42338); conditions: ZY0511 1 µM, read-out: Inhibition rate
T8 construct: purchased Eurofins Pharma Discovery Services (KinaseProfiler)
Method: as §1

FGFR2 = molecular target: T9, FGFR2 (Homo sapiens, UniProt P21802); conditions: ZY0511 1 µM, read-out: Inhibition rate
T9 construct: purchased Eurofins Pharma Discovery Services
T9 sequence (P21802 22-821, species assumed): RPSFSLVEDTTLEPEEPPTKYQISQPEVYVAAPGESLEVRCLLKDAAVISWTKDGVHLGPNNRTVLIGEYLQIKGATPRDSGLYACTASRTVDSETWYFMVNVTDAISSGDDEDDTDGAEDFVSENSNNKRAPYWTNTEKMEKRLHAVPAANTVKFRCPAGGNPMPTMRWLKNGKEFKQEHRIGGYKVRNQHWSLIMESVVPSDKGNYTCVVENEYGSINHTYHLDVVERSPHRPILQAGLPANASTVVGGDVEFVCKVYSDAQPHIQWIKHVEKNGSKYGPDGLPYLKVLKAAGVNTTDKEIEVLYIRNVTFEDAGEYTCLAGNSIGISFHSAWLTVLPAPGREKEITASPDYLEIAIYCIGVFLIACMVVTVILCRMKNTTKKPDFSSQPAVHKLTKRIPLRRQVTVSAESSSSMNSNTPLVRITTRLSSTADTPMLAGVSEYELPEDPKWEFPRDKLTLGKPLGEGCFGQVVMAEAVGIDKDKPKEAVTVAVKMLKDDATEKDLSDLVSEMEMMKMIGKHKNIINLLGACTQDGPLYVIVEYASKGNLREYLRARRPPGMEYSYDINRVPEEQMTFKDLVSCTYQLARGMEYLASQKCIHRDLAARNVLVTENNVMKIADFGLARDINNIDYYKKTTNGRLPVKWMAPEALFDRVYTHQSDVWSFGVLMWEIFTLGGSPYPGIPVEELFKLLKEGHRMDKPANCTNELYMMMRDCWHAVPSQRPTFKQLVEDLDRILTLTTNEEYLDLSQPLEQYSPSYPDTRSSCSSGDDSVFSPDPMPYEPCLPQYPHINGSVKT
Method: as §1

CDK5/p35 = molecular target: T10, CDK5/p35 (Homo sapiens, UniProt Q00535); conditions: ZY0511 1 µM, read-out: Inhibition rate
T10 construct: purchased Eurofins Pharma Discovery Services (KinaseProfiler)
Method: as §1

KDR = molecular target: T11, KDR (Homo sapiens, UniProt P35968); conditions: ZY0511 1 µM, read-out: Inhibition rate
T11 construct: purchased Eurofins Pharma Discovery Services (KinaseProfiler)
T11 sequence (P35968 20-1356): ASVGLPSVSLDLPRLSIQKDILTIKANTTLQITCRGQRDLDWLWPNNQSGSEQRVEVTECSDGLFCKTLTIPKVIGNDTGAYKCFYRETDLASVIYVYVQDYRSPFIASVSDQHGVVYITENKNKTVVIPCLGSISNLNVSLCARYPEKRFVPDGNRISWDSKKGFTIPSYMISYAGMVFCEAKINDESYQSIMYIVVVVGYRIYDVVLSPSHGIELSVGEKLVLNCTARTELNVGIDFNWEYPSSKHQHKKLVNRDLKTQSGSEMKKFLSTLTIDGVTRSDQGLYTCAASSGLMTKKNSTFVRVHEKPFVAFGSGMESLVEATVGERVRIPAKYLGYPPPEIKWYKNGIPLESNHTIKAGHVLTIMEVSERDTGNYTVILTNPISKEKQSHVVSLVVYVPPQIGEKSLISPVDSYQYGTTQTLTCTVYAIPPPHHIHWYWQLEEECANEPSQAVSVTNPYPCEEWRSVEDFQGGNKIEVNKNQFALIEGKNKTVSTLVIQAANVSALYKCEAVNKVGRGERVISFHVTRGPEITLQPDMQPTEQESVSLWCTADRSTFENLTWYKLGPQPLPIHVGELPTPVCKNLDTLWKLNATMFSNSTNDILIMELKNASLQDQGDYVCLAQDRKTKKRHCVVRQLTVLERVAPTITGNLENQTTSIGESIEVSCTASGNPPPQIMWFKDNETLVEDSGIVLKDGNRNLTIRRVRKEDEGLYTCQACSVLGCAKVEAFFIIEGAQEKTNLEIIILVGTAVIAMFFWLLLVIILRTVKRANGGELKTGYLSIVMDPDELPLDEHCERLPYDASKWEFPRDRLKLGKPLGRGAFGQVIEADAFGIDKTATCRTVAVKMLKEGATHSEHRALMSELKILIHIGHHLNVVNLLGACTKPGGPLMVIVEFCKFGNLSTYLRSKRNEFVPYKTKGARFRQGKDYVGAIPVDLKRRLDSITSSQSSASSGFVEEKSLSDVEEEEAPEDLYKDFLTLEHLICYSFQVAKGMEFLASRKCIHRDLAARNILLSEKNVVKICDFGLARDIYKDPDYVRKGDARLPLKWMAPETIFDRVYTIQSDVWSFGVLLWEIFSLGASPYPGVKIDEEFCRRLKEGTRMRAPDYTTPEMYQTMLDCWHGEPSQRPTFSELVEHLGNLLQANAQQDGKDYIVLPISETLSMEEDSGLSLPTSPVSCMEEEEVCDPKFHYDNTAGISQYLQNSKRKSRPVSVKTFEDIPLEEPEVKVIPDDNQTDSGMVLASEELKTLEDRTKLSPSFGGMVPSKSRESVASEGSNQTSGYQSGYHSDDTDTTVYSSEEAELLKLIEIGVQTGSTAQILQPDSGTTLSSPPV
Method: as §1

TrkC = molecular target: T12, TrkC (Homo sapiens, UniProt Q16288); conditions: ZY0511 1 µM, read-out: Inhibition rate
T12 construct: purchased Eurofins Pharma Discovery Services (KinaseProfiler)
Method: as §1

DDR2 = molecular target: T13, DDR2 (Homo sapiens, UniProt Q16832); conditions: ZY0511 1 µM, read-out: Inhibition rate
T13 construct: purchased Eurofins Pharma Discovery Services (KinaseProfiler)
Method: as §1

PI3 Kinase (p120γ) = molecular target: T14, PI3 Kinase (p120γ) (Homo sapiens, UniProt P48736); conditions: ZY0511 1 µM, read-out: Inhibition rate
T14 construct: purchased Eurofins Pharma Discovery Services (KinaseProfiler)
Method: as §1

PKCα = molecular target: T15, PKCα (Homo sapiens, UniProt P17252); conditions: ZY0511 1 µM, read-out: Activation rate
T15 construct: purchased Eurofins Pharma Discovery Services (KinaseProfiler)
Method: as §1

TAK1 = molecular target: T16, TAK1 (Homo sapiens, UniProt O43318); conditions: ZY0511 1 µM, read-out: Inhibition rate
T16 construct: purchased Eurofins Pharma Discovery Services
T16 sequence (O43318 1-303 limits assumed): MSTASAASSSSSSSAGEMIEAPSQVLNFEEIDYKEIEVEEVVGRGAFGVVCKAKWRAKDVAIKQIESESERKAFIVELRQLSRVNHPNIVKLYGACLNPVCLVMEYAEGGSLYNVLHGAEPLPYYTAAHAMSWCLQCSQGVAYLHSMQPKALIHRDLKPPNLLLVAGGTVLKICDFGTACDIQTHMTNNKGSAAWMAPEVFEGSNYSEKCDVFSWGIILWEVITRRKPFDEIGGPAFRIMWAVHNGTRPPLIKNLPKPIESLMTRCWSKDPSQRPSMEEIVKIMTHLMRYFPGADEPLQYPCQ
Method: as §1

[1] = molecular target: T17, PI3 Kinase (p110α (E545K)/p85α) (Homo sapiens, UniProt P42336, E545K); conditions: ZY0511 1 µM, read-out: Inhibition rate
T17 construct: purchased Eurofins Pharma Discovery Services (KinaseProfiler)
Method: as §1

ARK5 = molecular target: T18, ARK5 (Homo sapiens, UniProt O60285); conditions: ZY0511 1 µM
T18 construct: purchased Eurofins Pharma Discovery Services (KinaseProfiler)
T18 sequence (O60285 whole entry): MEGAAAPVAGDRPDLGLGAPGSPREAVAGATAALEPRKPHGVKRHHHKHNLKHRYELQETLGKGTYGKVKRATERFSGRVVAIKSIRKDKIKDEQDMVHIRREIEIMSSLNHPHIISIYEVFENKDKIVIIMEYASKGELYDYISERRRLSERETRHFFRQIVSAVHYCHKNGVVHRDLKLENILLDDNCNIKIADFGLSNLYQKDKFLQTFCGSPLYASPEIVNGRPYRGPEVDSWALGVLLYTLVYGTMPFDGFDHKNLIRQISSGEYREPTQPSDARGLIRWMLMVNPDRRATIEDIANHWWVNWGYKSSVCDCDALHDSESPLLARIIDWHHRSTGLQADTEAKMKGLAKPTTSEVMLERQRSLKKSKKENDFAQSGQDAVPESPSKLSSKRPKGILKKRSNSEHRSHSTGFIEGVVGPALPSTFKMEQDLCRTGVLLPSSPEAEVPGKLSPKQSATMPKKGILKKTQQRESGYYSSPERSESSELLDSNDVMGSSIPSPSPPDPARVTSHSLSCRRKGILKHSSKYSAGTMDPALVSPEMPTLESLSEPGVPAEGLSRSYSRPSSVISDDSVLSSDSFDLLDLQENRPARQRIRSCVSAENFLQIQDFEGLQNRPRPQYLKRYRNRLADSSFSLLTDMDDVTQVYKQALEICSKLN
Method: as §1

ErbB4 = molecular target: T19, ErbB4 (Homo sapiens, UniProt Q15303); conditions: ZY0511 1 µM, read-out: Activation rate
T19 construct: purchased Eurofins Pharma Discovery Services (KinaseProfiler)
Method: as §1

MELK = molecular target: T20, MELK (Homo sapiens, UniProt Q14680); conditions: ZY0511 1 µM, read-out: Inhibition rate
T20 construct: purchased Eurofins Pharma Discovery Services
T20 sequence (Q14680 whole entry, species assumed): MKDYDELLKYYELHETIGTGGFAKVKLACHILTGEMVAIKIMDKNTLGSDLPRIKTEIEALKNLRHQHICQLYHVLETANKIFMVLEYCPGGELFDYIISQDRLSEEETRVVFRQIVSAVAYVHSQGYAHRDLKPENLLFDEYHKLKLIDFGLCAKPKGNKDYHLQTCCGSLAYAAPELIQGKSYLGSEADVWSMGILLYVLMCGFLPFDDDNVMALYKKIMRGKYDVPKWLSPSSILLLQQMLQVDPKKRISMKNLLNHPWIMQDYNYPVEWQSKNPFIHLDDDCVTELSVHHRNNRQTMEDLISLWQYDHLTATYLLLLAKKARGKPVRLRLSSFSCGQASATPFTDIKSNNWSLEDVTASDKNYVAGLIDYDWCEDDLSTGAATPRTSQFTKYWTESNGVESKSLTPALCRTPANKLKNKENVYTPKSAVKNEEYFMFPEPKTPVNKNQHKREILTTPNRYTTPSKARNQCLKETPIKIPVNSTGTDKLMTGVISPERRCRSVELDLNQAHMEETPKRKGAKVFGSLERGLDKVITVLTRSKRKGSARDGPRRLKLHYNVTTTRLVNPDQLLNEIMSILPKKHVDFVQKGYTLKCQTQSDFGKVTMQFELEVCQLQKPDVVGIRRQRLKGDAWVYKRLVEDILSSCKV
Method: as §1

ROCK-I = molecular target: T21, ROCK-I (Homo sapiens, UniProt Q13464); conditions: ZY0511 1 µM, read-out: Inhibition rate
T21 construct: purchased Eurofins Pharma Discovery Services
Method: as §1

PDK1 = molecular target: T22, PDK1 (Homo sapiens, UniProt O15530); conditions: ZY0511 1 µM, read-out: Inhibition rate
T22 construct: purchased Eurofins Pharma Discovery Services (KinaseProfiler)
T22 sequence (O15530 whole entry): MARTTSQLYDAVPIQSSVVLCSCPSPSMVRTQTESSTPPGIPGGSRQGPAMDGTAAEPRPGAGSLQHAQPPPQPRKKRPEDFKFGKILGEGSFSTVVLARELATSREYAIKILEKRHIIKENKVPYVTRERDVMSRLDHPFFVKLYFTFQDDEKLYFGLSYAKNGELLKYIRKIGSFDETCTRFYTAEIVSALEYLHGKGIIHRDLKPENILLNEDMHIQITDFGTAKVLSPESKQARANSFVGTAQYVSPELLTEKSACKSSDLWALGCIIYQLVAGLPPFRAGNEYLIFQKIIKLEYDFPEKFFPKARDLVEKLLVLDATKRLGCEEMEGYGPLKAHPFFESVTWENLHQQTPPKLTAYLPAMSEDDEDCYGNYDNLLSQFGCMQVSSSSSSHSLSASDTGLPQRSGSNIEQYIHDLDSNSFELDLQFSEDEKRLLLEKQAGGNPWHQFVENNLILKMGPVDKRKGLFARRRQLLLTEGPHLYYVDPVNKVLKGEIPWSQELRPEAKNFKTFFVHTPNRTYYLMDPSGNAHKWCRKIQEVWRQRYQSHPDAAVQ
Method: as §1

ZIPK = molecular target: T23, ZIPK (Homo sapiens, UniProt O43293); conditions: ZY0511 1 µM, read-out: Inhibition rate
T23 construct: purchased Eurofins Pharma Discovery Services (KinaseProfiler)
Method: as §1

EGFR = molecular target: T24, EGFR (Homo sapiens, UniProt P00533); conditions: ZY0511 1 µM, read-out: Inhibition rate
T24 construct: purchased Eurofins Pharma Discovery Services (KinaseProfiler)
Method: as §1

Fms = molecular target: T25, Fms (Homo sapiens, UniProt P07333); conditions: ZY0511 1 µM, read-out: Inhibition rate
T25 construct: purchased Eurofins Pharma Discovery Services (KinaseProfiler)
Method: as §1

CHK1 = molecular target: T26, CHK1 (Homo sapiens, UniProt O14757); conditions: ZY0511 1 µM
T26 construct: purchased Eurofins Pharma Discovery Services (KinaseProfiler)
Method: as §1

cKit (V560G) = molecular target: T27, cKit (V560G) (Homo sapiens, UniProt P10721, V560G); conditions: ZY0511 1 µM, read-out: Inhibition rate
T27 construct: purchased Eurofins Pharma Discovery Services (KinaseProfiler)
Method: as §1

Tie2 = molecular target: T28, Tie2 (Homo sapiens, UniProt Q02763); conditions: ZY0511 1 µM, read-out: Inhibition rate
T28 construct: purchased Eurofins Pharma Discovery Services (KinaseProfiler)
Method: as §1

ErbB2 = molecular target: T29, ErbB2 (Homo sapiens, UniProt P04626); conditions: ZY0511 1 µM, read-out: Activation rate
T29 construct: purchased Eurofins Pharma Discovery Services (KinaseProfiler)
Method: as §1

Ret = molecular target: T30, Ret (Homo sapiens, UniProt P07949); conditions: ZY0511 1 µM, read-out: Activation rate
T30 construct: purchased Eurofins Pharma Discovery Services (KinaseProfiler)
Method: as §1

Flt3 (D835Y) = molecular target: T31, Flt3 (D835Y) (Homo sapiens, UniProt P36888, D835Y); conditions: ZY0511 1 µM, read-out: Inhibition rate
T31 construct: purchased Eurofins Pharma Discovery Services
Method: as §1

Ron = molecular target: T32, Ron (Homo sapiens, UniProt Q04912); conditions: ZY0511 1 µM, read-out: Activation rate
T32 construct: purchased Eurofins Pharma Discovery Services (KinaseProfiler)
Method: as §1

Flt1 = molecular target: T33, Flt1 (Homo sapiens, UniProt P17948); conditions: ZY0511 1 µM, read-out: Inhibition rate
T33 construct: purchased Eurofins Pharma Discovery Services (KinaseProfiler)
Method: as §1

Met = molecular target: T34, Met (Homo sapiens, UniProt P08581); conditions: ZY0511 1 µM, read-out: Inhibition rate
T34 construct: purchased Eurofins Pharma Discovery Services (KinaseProfiler)
Method: as §1

PDGFRα (D842V) = molecular target: T35, PDGFRα (D842V) (Homo sapiens, UniProt P16234, D842V); conditions: ZY0511 1 µM, read-out: Activation rate
T35 construct: purchased Eurofins Pharma Discovery Services (KinaseProfiler)
Method: as §1

ZAP-70 = molecular target: T36, ZAP-70 (Homo sapiens, UniProt P43403); conditions: ZY0511 1 µM, read-out: Activation rate
T36 construct: purchased Eurofins Pharma Discovery Services (KinaseProfiler)
Method: as §1

HIPK2 = molecular target: T37, HIPK2 (Homo sapiens, UniProt Q9H2X6); conditions: ZY0511 1 µM, read-out: Inhibition rate
T37 construct: purchased Eurofins Pharma Discovery Services
Method: as §1

FGFR1 = molecular target: T38, FGFR1 (Homo sapiens, UniProt P11362); conditions: ZY0511 1 µM, read-out: Activation rate
T38 construct: purchased Eurofins Pharma Discovery Services (KinaseProfiler)
Method: as §1

Hck = molecular target: T39, Hck (Homo sapiens, UniProt P08631); conditions: ZY0511 1 µM, read-out: Inhibition rate
T39 construct: purchased Eurofins Pharma Discovery Services (KinaseProfiler)
Method: as §1

DAPK1 = molecular target: T40, DAPK1 (Homo sapiens, UniProt P53355); conditions: ZY0511 1 µM, read-out: Activation rate
T40 construct: purchased Eurofins Pharma Discovery Services (KinaseProfiler)
Method: as §1

PKCµ = molecular target: T41, PKCµ (Homo sapiens, UniProt Q15139); conditions: ZY0511 1 µM, read-out: Inhibition rate
T41 construct: purchased Eurofins Pharma Discovery Services
Method: as §1

`O=C(N/N=C1\CCc2c(Cl)ccc(O)c21)c1cccc(S(=O)(=O)N2CCOCC2)c1` [ZY0511, (E)‐N'‐(2, 3‐dihydro‐1H‐inden‐1‐ylidene) benzohydrazides] was tested, and the inhibition at 1 µM (FGFR3) was 20%, the Activation rate (EGFR (T790M, L858R)) was 2% and the inhibition at 1 µM (DCAMKL3) was 3%. It also gave an inhibition at 1 µM (B-Raf (V599E)) of 51%, an inhibition at 1 µM (PI3 Kinase (p110δ/p85α)) of 6% and an activation at 1 µM (PAK1) of 1%. For the same compound, the inhibition at 1 µM (PAK4) was 20%, the inhibition at 1 µM (PI3 Kinase (p110βγ/p85α)) was 8% and the inhibition at 1 µM (FGFR2) was 11%. The inhibition at 1 µM (CDK5/p35) was 9%, the inhibition at 1 µM (KDR) was 30% and the inhibition at 1 µM (TrkC) was 7%. For the same compound, the inhibition at 1 µM (DDR2) was 5%, the inhibition at 1 µM (PI3 Kinase (p120γ)) was 10% and the activation at 1 µM (PKCα) was 4%. For the same compound, the inhibition at 1 µM (TAK1) was 1%, the inhibition at 1 µM [1] was 15% and the Activation rate (ARK5) was 6%. For the same compound, the activation at 1 µM (ErbB4) was 10%, the inhibition at 1 µM (MELK) was 1% and the inhibition at 1 µM (ROCK-I) was 11%. It also gave an inhibition at 1 µM (PDK1) of 8%, an inhibition at 1 µM (ZIPK) of 6% and an inhibition at 1 µM (EGFR) of 7%. The inhibition at 1 µM (Fms) was 7%, the Activation rate (CHK1) was 1% and the inhibition at 1 µM (cKit (V560G)) was 7%. The inhibition at 1 µM (Tie2) was 50%, the activation at 1 µM (ErbB2) was 25% and the activation at 1 µM (Ret) was 15%. The inhibition at 1 µM (Flt3 (D835Y)) was 11%, the activation at 1 µM (Ron) was 7% and the inhibition at 1 µM (Flt1) was 20%. For the same compound, the inhibition at 1 µM (Met) was 20%, the activation at 1 µM (PDGFRα (D842V)) was 2% and the activation at 1 µM (ZAP-70) was 4%. For the same compound, the inhibition at 1 µM (HIPK2) was 13%, the activation at 1 µM (FGFR1) was 1% and the inhibition at 1 µM (Hck) was 29%. It also gave an activation at 1 µM (DAPK1) of 5% and an inhibition at 1 µM (PKCµ) of 10%.
